pIC50: −log10 of the molar value.
Legend:
[1] = molecular target: T1, Tyrosine-protein kinase JAK3 (Homo sapiens, UniProt P52333); test: Inhibition of JAK3
T1 sequence (P52333 whole entry): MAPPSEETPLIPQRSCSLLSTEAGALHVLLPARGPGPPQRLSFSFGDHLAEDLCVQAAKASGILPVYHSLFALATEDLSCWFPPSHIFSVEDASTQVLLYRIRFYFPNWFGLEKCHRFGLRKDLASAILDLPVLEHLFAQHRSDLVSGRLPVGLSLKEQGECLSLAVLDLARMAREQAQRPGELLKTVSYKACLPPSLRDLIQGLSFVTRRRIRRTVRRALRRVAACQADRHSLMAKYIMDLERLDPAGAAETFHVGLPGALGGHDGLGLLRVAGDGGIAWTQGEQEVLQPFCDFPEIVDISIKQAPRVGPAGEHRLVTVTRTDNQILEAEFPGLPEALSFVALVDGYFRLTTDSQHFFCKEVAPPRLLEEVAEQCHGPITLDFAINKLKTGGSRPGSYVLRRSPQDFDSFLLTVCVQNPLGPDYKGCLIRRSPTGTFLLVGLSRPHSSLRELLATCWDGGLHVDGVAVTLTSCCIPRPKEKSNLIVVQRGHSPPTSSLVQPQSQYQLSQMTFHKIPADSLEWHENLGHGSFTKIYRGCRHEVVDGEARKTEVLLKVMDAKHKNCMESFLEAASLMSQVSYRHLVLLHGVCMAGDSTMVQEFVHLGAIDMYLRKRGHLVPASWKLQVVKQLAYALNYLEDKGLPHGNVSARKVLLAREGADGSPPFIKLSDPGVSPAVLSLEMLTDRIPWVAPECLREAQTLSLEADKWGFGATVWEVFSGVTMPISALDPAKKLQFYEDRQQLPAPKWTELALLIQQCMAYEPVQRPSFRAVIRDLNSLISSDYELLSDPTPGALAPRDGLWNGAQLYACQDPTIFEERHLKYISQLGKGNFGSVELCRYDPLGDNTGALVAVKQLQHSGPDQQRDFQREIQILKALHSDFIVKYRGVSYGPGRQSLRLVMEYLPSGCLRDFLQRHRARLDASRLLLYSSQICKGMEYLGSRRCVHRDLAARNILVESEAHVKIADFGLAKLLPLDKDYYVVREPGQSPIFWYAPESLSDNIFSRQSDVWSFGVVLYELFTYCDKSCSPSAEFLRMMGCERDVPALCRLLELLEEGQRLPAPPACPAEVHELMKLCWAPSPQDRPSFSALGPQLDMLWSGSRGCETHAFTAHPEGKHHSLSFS

[2] = molecular target: Receptor tyrosine-protein kinase erbB-4 (Homo sapiens, UniProt Q15303); test: Inhibition of HER4
[3] = molecular target: Tyrosine-protein kinase BTK (Homo sapiens, UniProt Q06187); test: Inhibition of Btk
[4] = molecular target: T2, Serine/threonine-protein kinase STK11 (Homo sapiens, UniProt Q15831); test: Inhibition of Lkb1
T2 sequence (Q15831 whole entry): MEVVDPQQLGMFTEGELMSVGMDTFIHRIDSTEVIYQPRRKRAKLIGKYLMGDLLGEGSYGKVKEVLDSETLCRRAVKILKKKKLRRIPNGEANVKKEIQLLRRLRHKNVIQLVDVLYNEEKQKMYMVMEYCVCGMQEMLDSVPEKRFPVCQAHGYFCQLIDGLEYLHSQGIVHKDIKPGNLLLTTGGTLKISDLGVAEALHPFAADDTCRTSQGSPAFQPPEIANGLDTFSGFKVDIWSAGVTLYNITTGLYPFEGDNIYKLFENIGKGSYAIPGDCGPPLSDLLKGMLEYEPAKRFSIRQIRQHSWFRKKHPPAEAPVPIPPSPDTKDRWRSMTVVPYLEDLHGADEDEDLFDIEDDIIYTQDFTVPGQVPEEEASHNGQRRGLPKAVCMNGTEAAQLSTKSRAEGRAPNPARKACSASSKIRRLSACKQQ

[5] = molecular target: T3, Tyrosine-protein kinase ITK/TSK (Homo sapiens, UniProt Q08881); test: Inhibition of Itk
T3 sequence (Q08881 whole entry): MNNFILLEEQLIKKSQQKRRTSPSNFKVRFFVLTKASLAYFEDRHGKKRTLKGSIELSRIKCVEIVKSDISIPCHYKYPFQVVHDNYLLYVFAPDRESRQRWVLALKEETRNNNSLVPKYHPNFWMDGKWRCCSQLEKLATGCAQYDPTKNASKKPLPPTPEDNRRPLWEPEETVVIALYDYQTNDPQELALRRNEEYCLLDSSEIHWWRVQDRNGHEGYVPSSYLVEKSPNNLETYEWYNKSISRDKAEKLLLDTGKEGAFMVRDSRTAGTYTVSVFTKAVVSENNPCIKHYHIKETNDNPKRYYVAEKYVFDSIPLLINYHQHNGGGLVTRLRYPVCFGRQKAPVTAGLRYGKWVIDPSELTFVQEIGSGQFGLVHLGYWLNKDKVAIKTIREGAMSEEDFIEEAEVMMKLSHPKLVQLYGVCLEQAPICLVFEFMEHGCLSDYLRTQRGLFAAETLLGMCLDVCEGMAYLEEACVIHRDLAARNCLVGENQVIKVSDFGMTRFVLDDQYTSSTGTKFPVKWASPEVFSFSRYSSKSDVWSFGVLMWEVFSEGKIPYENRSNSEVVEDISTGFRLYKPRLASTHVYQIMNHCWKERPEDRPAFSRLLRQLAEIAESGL

[6] = molecular target: Receptor tyrosine-protein kinase erbB-2 (Homo sapiens, UniProt P04626); test: Inhibition of HER2
[7] = molecular target: Tyrosine-protein kinase Blk (Homo sapiens, UniProt P51451); test: Inhibition of Blk
Chain of Tyrosine-protein kinase Blk (P51451 whole entry): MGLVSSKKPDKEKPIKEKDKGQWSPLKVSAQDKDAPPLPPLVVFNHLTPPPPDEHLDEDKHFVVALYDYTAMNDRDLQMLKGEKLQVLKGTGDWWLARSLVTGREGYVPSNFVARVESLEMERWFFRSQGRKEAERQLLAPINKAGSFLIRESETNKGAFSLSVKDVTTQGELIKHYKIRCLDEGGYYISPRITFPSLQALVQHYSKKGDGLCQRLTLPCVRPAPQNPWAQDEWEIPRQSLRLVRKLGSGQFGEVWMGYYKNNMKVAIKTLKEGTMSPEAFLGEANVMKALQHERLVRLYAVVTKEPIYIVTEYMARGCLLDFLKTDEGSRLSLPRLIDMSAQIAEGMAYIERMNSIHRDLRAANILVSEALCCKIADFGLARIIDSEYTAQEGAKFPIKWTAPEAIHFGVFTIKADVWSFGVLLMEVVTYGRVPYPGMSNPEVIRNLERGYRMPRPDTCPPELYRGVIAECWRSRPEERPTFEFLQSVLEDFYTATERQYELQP

Chain of Tyrosine-protein kinase BTK (Q06187 whole entry): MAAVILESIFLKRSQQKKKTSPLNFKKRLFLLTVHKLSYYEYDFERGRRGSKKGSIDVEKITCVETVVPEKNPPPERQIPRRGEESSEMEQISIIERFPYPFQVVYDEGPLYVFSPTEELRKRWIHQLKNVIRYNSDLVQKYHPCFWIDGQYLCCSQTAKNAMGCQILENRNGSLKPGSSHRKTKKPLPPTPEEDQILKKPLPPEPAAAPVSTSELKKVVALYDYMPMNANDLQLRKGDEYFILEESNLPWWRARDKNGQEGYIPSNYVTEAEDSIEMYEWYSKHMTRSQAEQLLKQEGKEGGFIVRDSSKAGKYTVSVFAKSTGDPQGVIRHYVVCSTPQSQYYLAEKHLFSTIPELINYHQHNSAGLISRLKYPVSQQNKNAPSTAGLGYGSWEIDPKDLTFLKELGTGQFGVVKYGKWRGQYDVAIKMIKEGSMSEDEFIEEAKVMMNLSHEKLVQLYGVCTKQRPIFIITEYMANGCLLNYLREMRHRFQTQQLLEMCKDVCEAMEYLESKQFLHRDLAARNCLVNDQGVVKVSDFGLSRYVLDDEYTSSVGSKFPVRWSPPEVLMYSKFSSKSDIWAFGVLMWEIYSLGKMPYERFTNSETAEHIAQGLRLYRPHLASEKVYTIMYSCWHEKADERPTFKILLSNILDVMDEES
Chain of Receptor tyrosine-protein kinase erbB-2 (P04626 whole entry): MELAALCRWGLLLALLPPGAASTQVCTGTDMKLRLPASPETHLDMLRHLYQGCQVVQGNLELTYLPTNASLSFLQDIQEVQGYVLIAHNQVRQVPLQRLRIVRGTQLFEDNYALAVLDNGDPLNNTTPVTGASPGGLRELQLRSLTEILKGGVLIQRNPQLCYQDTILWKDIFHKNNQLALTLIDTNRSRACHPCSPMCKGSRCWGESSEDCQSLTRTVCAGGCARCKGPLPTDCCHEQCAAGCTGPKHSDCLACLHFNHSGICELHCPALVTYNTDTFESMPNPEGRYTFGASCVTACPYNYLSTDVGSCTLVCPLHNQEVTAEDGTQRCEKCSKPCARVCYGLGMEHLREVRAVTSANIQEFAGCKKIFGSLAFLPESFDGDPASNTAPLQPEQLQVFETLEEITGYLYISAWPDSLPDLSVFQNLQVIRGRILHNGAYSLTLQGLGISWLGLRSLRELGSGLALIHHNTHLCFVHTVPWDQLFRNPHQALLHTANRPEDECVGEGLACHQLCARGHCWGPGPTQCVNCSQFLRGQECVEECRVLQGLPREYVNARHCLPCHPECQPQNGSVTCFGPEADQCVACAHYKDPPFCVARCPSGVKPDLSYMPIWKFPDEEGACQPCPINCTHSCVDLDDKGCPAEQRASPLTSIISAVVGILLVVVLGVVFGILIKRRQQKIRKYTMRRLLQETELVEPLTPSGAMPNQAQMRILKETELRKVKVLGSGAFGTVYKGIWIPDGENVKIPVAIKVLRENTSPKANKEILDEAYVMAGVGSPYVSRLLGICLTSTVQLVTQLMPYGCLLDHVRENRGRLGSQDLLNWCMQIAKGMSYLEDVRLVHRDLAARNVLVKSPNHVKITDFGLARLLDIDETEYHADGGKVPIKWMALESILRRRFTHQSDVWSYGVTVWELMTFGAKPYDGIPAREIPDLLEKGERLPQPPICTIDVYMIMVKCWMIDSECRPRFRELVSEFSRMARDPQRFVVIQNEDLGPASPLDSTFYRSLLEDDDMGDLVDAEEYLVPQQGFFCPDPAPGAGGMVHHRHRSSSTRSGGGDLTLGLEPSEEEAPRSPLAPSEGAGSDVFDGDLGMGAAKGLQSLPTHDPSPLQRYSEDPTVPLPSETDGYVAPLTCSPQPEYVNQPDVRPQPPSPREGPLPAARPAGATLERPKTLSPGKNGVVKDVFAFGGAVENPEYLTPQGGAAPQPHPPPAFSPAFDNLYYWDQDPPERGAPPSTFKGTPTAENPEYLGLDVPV
Chain of Receptor tyrosine-protein kinase erbB-4 (Q15303 whole entry): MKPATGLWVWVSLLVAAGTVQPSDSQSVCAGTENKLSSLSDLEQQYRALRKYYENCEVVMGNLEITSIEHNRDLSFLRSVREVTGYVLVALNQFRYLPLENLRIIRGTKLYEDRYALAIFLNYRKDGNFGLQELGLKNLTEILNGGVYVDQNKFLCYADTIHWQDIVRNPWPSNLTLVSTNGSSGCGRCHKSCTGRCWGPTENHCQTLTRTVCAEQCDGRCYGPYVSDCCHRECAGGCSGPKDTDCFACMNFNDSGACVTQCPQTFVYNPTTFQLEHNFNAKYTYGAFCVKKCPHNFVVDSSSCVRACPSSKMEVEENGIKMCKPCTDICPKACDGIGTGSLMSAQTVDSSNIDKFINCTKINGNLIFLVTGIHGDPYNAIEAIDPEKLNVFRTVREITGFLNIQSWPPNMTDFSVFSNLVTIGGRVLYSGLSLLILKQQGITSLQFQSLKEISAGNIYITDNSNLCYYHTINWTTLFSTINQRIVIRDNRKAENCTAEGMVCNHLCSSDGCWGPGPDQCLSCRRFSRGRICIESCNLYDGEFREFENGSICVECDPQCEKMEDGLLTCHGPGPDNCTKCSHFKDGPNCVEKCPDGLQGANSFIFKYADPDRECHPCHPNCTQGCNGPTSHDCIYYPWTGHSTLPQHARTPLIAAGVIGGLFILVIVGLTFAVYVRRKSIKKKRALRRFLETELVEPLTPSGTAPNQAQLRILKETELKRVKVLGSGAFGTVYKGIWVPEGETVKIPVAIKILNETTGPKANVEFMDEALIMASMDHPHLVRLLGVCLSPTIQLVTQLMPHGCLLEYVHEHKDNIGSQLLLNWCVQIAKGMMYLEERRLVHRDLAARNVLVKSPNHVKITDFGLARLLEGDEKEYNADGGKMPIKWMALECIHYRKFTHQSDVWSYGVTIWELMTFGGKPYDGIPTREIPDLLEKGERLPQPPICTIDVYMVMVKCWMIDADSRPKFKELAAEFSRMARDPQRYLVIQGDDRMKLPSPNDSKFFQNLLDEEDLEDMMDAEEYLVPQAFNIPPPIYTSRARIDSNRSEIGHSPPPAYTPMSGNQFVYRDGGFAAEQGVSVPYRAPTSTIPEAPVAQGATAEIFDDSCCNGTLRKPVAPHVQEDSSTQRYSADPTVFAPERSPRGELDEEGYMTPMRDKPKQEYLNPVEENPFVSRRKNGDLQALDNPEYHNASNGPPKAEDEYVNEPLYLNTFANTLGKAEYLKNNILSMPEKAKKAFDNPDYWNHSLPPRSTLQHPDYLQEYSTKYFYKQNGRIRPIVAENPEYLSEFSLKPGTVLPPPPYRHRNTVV

pIC50 [1] | pIC50 [2] | pIC50 [3] | pIC50 [4] | pIC50 [5] | pIC50 [6] | pIC50 [7] | SMILES
5.50 | 7.92 | 5.23 | < 5.00 | < 4.52 | 7.62 | 5.26 | C=CC(=O)Nc1ccc2ncnc(Nc3cccc(Br)c3)c2c1
 |  | 6.73 |  |  |  |  | C=CC(=O)Nc1cc2c(Nc3ccc(F)c(Cl)c3)ncnc2cc1OCCCN1CCOCC1 [CANERTINIB]
